Results on four compounds are retold here after US7868163B2, “Adenyl dinucleotides with antitumour activity and a method of preparing thereof” (Universita' Degli Studi Di Genova, priority 2005, dated 2011).

Broadly, the IC50 is the midpoint of a concentration-inhibition curve.

Where two headings read alike, the source gives them in different places.

Series [1] has as its system HeLa-CD38^+ (whole cells). As to the kind of experiment: Hydrolysis by CD38+ HeLa whole cells. The method, then: (§1) ADP-ribosyl cyclases from lower and higher Metazoa were incubated in the presence of 0.1 mM cADPR and 1 mM adenine at pH 7.4 in 10 mM Tris-HCl (A, B and C) or in PBS-glucose (D) at 22° C. (A and B) or at 37° C. (C and D) for 4 hours. Aliquots of the various incubations were deproteinised with TCA (trichloroacetic acid) and subjected to HPLC (analytical phosphate). Chromatograms representative of each incubation are shown. A. A. polypoides; B. A. californica; C. Human CD38 (recombinant); D. Human HeLa cells transfected with sense and antisense human CD38 (dashed chromatogram).
(§2) In table 1, the absolute values of the peak-forming and -hydrolysing activities are compared with the cADPR-forming and -hydrolysing activities for each enzyme. The activities are expressed as nmol/min/mg.

In series [2] the test system is CD38^− cells. As to the kind of experiment: Uptake of extracellularly added dinucleotides in CD38- cells. The series is classed as in vitro ADME, human. The conditions noted are these: 15 μM added extracellularly.
The nature of series [3]: Storage stability of purified lyophilised peaks. The settings on record: stored at −20° C., several months (approx. 6). The method, then: The cyclase purified from A. polypoides was used for the production of the dinucleotides for structural and functional studies. In a total volume of 0.4 ml of 10 mM Tris-HCl, pH 7.0, 0.05 mg of purified cyclase were incubated with 1 mM cADPR (or NAD^+), 5 mM adenine and 2 mM MgCl2 at room temperature. cADPR or NAD^+ was added to the reaction mixture every 6 hours, while every 24 hours fresh cyclase was added and an aliquot of the incubation was deproteinised with TCA (5% final concentration) and analysed by HPLC (analytical phosphate) to monitor dinucleotide production. After 3-5 days, the resulting incubation was extracted with TCA and 250 μl aliquots were injected into an HPLC column (preparative phosphate). The P18, P24 and P31 peaks were collected, lyophilised in a RotoVapor, re-dissolved in deionised water and injected into an HPLC column (preparative formate). […] The purified peaks produced by Axinella cyclase were used in in vitro experiments on the various cell types described hereinafter, for the enzymatic production of mononucleotides and nucleosides (see below), as internal and external HPLC standards to identify the dinucleotides in cell extracts, and for detecting the absorption spectra stored in the liquid chromatograph library as standards.

Series [4] deals with T1, A. californica ADP-ribosyl cyclase (Aplysia californica, UniProt P29241).
T1 construct: The cyclase purified from the mollusc Aplysia californica was purchased from Sigma; purchased Sigma; host or cells: purified from the mollusc
T1 sequence (P29241 25-282): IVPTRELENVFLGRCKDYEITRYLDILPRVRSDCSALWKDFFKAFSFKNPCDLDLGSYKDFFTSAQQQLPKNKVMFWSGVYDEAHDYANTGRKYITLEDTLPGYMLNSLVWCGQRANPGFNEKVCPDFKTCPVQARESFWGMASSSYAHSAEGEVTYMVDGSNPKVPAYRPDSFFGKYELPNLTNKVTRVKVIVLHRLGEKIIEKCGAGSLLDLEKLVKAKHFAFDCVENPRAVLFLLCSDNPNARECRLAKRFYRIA
As to the kind of experiment: Hydrolysis by Aplysia californica ADP-ribosyl cyclase. The format is in vitro ADME. The settings on record: P18 to adenine and ADPR. How it is done:
(A and B) or at 37° C. (C and D) for 4 hours. […] Chromatograms representative of each incubation are shown. A. A. polypoides; B. A. californica; C.
The activities are expressed as nmol/min/mg.

In series [5] the test system is Recombinant CD38. As to the kind of experiment: Hydrolysis by recombinant CD38. The method, then:
as §1, §2

The test system of series [6] is A. polypoides ADP-ribosyl cyclase. As to the kind of experiment: Hydrolysis by purified Axinella polypoides ADP-ribosyl cyclase. How it is done: as §1, §2
Series [7] concerns CFC (colony forming cells). As to the kind of experiment: CFC colony growth from cord blood mononuclear cells in semi-solid medium. The series is classed as cell-based, human. The settings on record: Homo sapiens; 24 hours incubation of cord blood mononuclear cells, colonies counted after 2 weeks; read-out: IC50, inhibition of CFC colony growth. How it is done:
Mononuclear cells isolated from cord blood were incubated in the presence of various concentrations of P18 (▴), P24 (▪) and the iso-adenosine units resulting from the enzymatic digestion of P18 (Δ) and P24 (□). After 24 hours, aliquots of cells (1-2×10^4) were seeded in semi-solid medium to allow for colony growth. Results are expressed as percentage of inhibition of colony growth compared with controls, represented by cells incubated with the same dilution of chromatographic buffer as present in the HPLC-purified compounds. The IC50 values were obtained from the logarithmic regression curves (R≧0.97). The results shown in this figure are the mean from at least three different experiments.
Mononuclear cells were isolated from cord blood (CB MNC) by a density gradient, washed by centrifugation and resuspended in complete medium (Mosmann, T. (1983) J. Immunol. Methods 65, 55-63). Cells (10^6/ml) were incubated for 24 hours in complete medium in the presence of different dinucleotides at concentrations comprised between 20 and 0.4 μM. Then, aliquots of cells (1-2×10^4) were seeded in semi-solid medium, supplemented with haemopoietic growth factors (Methocult, Stem Cell Technologies, Vancouver, BC), in order to allow colonies to develop. After 2 weeks in culture, the colonies which were grown were microscopically identified according to standard criteria (CFU-E, CFU-GM and CFU-GEM) and counted: each colony identifies a colony forming cell (CFC).

`Nc1ncnc2c1ncn2[C@@H]1O[C@H](CO[P@](=O)(O)O[P@](=O)(O)OC[C@H]2O[C@@H](n3cnc4c(N)ncnc43)[C@H](O)[C@@H]2O)[C@@H](O)[C@H]1O` [P31, diadenosine diphosphate, reference compound] showed a hydrolysis activity in series [1] (HeLa-CD38^+ whole cells, P18 and P24 to adenine and ADPR) of 0.15 nmol/min/mg. The “rate of increase of intracellular concentration (uptake)” value in series [2] is “approx. 2.4 pmol/min/mg”. Moreover, the degradation on storage entry in series [3] is listed as “no dinucleotide degradation was observed”.

As for `N=c1c2ncn3c2ncn1[C@@H]1O[C@H](COP(=O)(O)OP(=O)(O)OC[C@H]2O[C@@H]3[C@H](O)[C@@H]2O)[C@@H](O)[C@H]1O` [cADPR, cyclic ADP-ribose, reference compound], the hydrolysis activity in series [4] is 770 nmol/min/mg; in series [1] it was 0.49 nmol/min/mg; in series [5], 308 nmol/min/mg; in series [6] it was 170 nmol/min/mg.

As to `Nc1c2ncnc-2ncn1[C@@H]1O[C@H](CO)[C@@H](O)[C@H]1O` [iso-adenosine from P18, 1-β-D-ribofuranosyladenine], the half-maximal inhibitory concentration (IC50) in series [7] was found to be 37 µM.

For `Nc1ncn([C@@H]2O[C@H](CO)[C@@H](O)[C@H]2O)c2ncnc1-2` [iso-adenosine from P24, 3-β-ribofuranosyladenine], the 50% inhibitory concentration (IC50) in series [7] was 5 µM.
